Experimental data reported in publication PMC4287973, “Tumor cell-specific inhibition of MYC function using small molecule inhibitors of the HUWE1 ubiquitin ligase” (EMBO Molecular Medicine, 2014).

Key:
[1] = molecular target: T1, HECT-domain of HUWE1 (Homo sapiens, UniProt Q7Z6Z7); assay: HUWE1 auto-ubiquitination assay (DELFIA format); type: biochemical; conditions: UBA1, UbcH5b, read-out: IC50 HUWE1 (in vitro auto-ubiquitination)
T1 construct: 30 ng biotinylated His-HUWE1 (C-terminal ∼350 amino acids = HECT-domain); His; biotin (biotinylated)
T1 sequence (Q7Z6Z7 4038-4374 limits assumed): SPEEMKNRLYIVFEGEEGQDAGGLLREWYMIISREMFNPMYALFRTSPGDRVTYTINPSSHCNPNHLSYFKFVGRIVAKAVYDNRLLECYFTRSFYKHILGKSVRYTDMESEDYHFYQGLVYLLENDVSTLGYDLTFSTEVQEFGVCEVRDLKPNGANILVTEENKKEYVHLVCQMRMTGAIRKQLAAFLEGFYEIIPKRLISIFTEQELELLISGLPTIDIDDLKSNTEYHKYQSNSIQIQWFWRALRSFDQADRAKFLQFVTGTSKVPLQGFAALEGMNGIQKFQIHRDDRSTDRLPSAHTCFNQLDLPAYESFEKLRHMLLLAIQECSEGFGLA
Protocol: To identify potential inhibitors of HUWE1, we configured an in vitro assay of HUWE1 activity for high-throughput screening of small molecules, exploiting the fact that the HECT-domain of HUWE1 auto-ubiquitinates (Pandya et al, [2010]). Briefly, the HECT-domain of HUWE1 was biotin-tagged, attached to streptavidin-coated 96-well plates, and incubated with UBA1, UbcH5b, a ubiquitin-conjugating enzyme that supports HUWE1 activity in vitro (Adhikary et al, [2005]), ATP, and MYC-tagged ubiquitin. Auto-ubiquitination was detected using a europium-labeled MYC antibody and appropriate detection reagents (Fig3A). […] After hit confirmation in repeat experiments, we identified inhibitors of UBA1 or UbcH5b by a thioester assay that measures the covalent binding of UbcH5b to ubiquitin in the presence of UBA1: Compounds active in this assay were eliminated. Furthermore, dose responses were determined in both HUWE1 and NEDD4 auto-ubiquitination assays, and compounds inhibiting NEDD4 auto-ubiquitination were eliminated (Fig3B and unpublished observations). […]
A DELFIA format assay was used to measure the covalent association of ubiquitin with HUWE1 (auto-ubiquitination). […] Europium fluorescence was measured with 50 μl DELFIA enhancement solution (Perkin Elmer) in a Wallac Victor fluorescence plate reader (Perkin Elmer).

[2] = molecular target: T2, ITCH (Homo sapiens, UniProt Q96J02); assay: in vitro HECT-domain auto-ubiquitination assay, ITCH; type: biochemical
T2 construct: HECT-domains of multiple ligases auto-ubiquitinate in in vitro assays containing both UBA1 and UbcH5b

[3] = molecular target: T3, SMURF1 (Homo sapiens, UniProt Q9HCE7); assay: in vitro HECT-domain auto-ubiquitination assay, SMURF1; type: biochemical
T3 construct: HECT-domains of multiple ligases auto-ubiquitinate in in vitro assays containing both UBA1 and UbcH5b

[4] = molecular target: T4, SMURF2 (Homo sapiens, UniProt Q9HAU4); assay: in vitro HECT-domain auto-ubiquitination assay, SMURF2; type: biochemical
T4 construct: HECT-domains of multiple ligases auto-ubiquitinate in in vitro assays containing both UBA1 and UbcH5b

[5] = molecular target: T5, WWP1 (Homo sapiens, UniProt Q9H0M0); assay: in vitro HECT-domain auto-ubiquitination assay, WWP1; type: biochemical
T5 construct: HECT-domains of multiple ligases auto-ubiquitinate in in vitro assays containing both UBA1 and UbcH5b

[6] = system: MYC target gene sets in Ls174T cells; assay: Microarray gene expression and GSEA in Ls174T cells; type: cell-based, human; conditions: for number of genes downregulated (microarray) / number of genes upregulated (microarray): Ls174T, 24 h, cut-off fold change 2, P < 0.01
Protocol: Finally, shRNA-mediated depletion of p53 (Supplementary Fig S8, upper panel) had no effect on regulation of MYC target genes by either compound (Supplementary Fig S8, lower panel). Collectively, the data establish that these compounds block MYC-dependent transcriptional activation via inhibition of HUWE1 in colon cancer cells.
Control or HUWE1-depleted Ls174T cells were treated with HUWE1 inhibitors or DMSO as control for 24 h. Expression of different MYC-induced target genes was analyzed by RQ–PCR. Error bars show SD of triplicate technical assays from one representative experiment (n = 5). • Time-dependent expression of the differentiation marker MUC2 upon HUWE1 inhibition. Ls174T cells were treated with HUWE1 inhibitors for the indicated times. Error bars show SD of triplicate technical assays from one representative experiment (n = 3). • Gene set enrichment analysis (GSEA) of gene expression changes upon HUWE1 inhibition. Ls174T cells were treated for 24 h with either HUWE1 inhibitor or DMSO as control. RNA was isolated and subjected to a microarray and gene set enrichment analysis. […] P-values were calculated using a test for hypergeometric distribution. • Heat map comparing gene expression after HUWE1 depletion to treatment with HUWE1 inhibitors. The left panel summarizes expression of all genes (n = 10,452) ordered according to their expression after HUWE1 knockdown. […] MYC binding data were taken from HeLa cells. […] The upper panels display examples of MYC-activated gene sets and their response to inhibition of HUWE1.
Microarray analyses were performed on a 44K Whole Human Genome Array (G4845A 026652, Agilent), and raw data were generated with the Feature Extraction software v10.1.1.1 (Agilent).
The P-value was calculated using a one-sample two-tailed Student's t-test with μ = 0. Gene set enrichment analysis (GSEA) was performed using default settings and the C2 gene sets from the MSigDB (www.broadinstitute.org/gsea/msigdb). To compare two GSEA, the normalized enrichment scores (NES) for all repressed gene sets were plotted and gene sets containing > 25% ribosomal protein genes were highlighted. Data are presented as means with standard deviation unless defined differently in the figure legends. P-values were calculated using Student's t-test.

T4 sequence (Q9HAU4 414-748 limits assumed, species assumed): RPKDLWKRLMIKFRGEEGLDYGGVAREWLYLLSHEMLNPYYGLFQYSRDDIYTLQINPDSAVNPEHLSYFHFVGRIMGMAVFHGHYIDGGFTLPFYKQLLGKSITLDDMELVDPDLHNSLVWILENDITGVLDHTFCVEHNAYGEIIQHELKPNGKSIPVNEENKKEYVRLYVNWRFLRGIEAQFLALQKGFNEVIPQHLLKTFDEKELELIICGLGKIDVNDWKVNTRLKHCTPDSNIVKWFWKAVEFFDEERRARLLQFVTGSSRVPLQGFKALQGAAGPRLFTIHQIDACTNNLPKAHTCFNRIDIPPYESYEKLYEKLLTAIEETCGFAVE
T2 sequence (Q96J02 569-903 limits assumed, species assumed): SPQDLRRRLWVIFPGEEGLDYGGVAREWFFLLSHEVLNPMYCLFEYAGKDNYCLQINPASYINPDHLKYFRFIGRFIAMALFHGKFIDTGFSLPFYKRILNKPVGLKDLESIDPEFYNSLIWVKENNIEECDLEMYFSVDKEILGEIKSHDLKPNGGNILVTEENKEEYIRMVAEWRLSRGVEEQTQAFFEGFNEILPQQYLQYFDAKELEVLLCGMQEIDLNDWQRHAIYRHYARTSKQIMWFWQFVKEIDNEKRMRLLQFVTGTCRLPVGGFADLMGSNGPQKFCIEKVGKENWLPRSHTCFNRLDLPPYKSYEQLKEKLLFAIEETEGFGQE
T3 sequence (Q9HCE7 420-757 limits assumed, species assumed): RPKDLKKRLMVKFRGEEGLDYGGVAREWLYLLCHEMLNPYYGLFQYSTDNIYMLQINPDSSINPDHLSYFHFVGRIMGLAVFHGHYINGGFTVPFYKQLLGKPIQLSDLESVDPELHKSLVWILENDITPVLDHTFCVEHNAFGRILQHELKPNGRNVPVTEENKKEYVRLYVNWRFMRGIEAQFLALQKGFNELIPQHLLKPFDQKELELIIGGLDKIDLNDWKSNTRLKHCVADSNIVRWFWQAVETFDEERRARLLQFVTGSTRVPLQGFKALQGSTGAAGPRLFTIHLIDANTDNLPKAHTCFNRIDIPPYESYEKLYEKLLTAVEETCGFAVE
T5 sequence (Q9H0M0 588-922 limits assumed, species assumed): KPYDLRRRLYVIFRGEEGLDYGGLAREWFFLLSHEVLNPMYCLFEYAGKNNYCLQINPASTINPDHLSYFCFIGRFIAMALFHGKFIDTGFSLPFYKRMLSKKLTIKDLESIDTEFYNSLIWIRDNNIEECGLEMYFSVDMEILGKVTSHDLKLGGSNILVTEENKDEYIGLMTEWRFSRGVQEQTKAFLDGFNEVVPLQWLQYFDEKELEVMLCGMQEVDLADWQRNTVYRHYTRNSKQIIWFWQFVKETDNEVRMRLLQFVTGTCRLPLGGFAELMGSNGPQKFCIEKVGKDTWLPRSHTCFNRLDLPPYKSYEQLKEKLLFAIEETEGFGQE

With `Cc1c(C(=O)Nc2ccc(CN)cc2)ncnc1N1CCC(C#N)(c2ccccc2)CC1` [BI8622] as the molecule, how does the IC50 [1] read?
The IC50 was 3.1 µM.

And the IC50 [2]?
Its IC50 is greater than 50 µM.

And the IC50 [3]?
The IC50 was greater than 50 µM.

And the IC50 [4]?
The IC50 was greater than 50 µM.

What about the IC50 [5] of the same molecule?
The IC50 was greater than 50 µM.

And the “number of genes downregulated (microarray)” value [6]?
Its value is 2,295.

And the “number of genes upregulated (microarray)” value [6]?
Its value is 2,267.

And the “effect on expression of sets of MYC-activated target genes in HUWE1-depleted cells” value ([6]; genome-wide analysis, HUWE1-depleted Ls174T cells)?
The value was “no statistically significant effect”.

Which results are given for `NCc1cccc(CNc2ncnc3c(N4CCN(Cc5ccccc5)CC4)ncnc23)c1` [BI8626]?
IC50 [1]: 0.9 µM; IC50 [2]: > 50 µM; IC50 [3]: > 50 µM; IC50 [4]: > 50 µM; IC50 [5]: > 50 µM; number of genes downregulated (microarray) [6]: 2,923; number of genes upregulated (microarray) [6]: 2,796
